Data reported in patent publication US20130108573A1, “Bile Acid Recycling Inhibitors for Treatment of Hypercholemia and Cholestatic Liver Disease” (Lumena Pharmaceuticals, Inc., priority 2011, published 2013).
Marks after values point to notes of the source that are not given here.

How the values were obtained:
serum bile acids = test: Human study of LUM001 lowering fasting and post-prandial peak serum bile acids in children and adolescents; assay type: in vivo; conditions: for Fasting serum bile acid / Morning Post-prandial peak: after eight days of dosing
Experimental: (§1) LUM001 has been administered to forty patients under the age of 18 years old. […] The drug was administered once-a-day (QD) in the morning for fourteen days. […] These doses are similar to those using to treat patients with cholestatic diseases.
The efficacy of LUM001 was determined by measuring total serum bile acids after eight days of dosing in children and adolescents under the age of eighteen. Thirty minutes before the next drug administration, at approximately 8 am in the morning, serum bile acid levels were measured. The child had refrained from food for 12 hours prior to this sample thus providing a fasted level of serum bile acid. After breakfast, serum bile acids were measured for up to the next 4 hours (8 am to noon) and the peak serum bile acid concentration noted.

Dog Serum Bile Acids [1] = test: Time to onset of activity of LUM001 on postprandial serum bile acids in beagle dogs; assay type: in vivo; conditions: for Serum Bile Acid, Mean: dogs n = 6, fed at 0 min, dosed at 60 min
Experimental: LUM001 was dissolved in water at concentrations that required the administration of 0.2 ml/kg of solution. Solutions were placed into gelatin capsules, Torpac Inc., size 13 Batch 594, East Hanover N.J., and administered orally.
Male beagle dogs were obtained from Covance Research Products, Cumberland Va. or Marshall Farms USA, Inc., North Rose N.Y. A total of 20 dogs, 1 to 5 years old, 6.8 to 15.6 kg body weight, were used in these experiments. The dogs were conditioned to a 12 hour light/dark cycle and maintained on a feeding restriction of 1 hour per day access to food (Richman Standard Certified Canine Diet #5007, PMI Nutrition, Inc., St Louis Mo.) from 7 to 8 AM. They were trained to eat a special meal promptly within 20 minutes when presented (1 can. 397 g, Evanger's 100% Beef for Dogs, Evanger's Dog and Cat Food Co., Inc., Wheeling Ill., mixed with 50 g of sharp cheddar cheese.).
SBA was measured by an enzymatic assay. SBA values are expressed as μg of total bile acids/ml of serum.
To estimate the details of this plateau, 6 dogs were given a test meal and blood samples for SBA measurement were collected at −30, 0, 30, 60, 65, 70, 80, 90, 120, 180, 240, 360, 480, 720, 1410 and 1440 minutes from the time of feeding. Any remaining food was removed 20 min after it was first presented to the dogs. To establish a method for extending the elevated plateau of SBA, 6 dogs were given the meal at 0 hr and an additional ½ size meal again 4 hr after their first meal. Blood samples were taken at 0, 1, 2, 3, 4, 4.5, 6, 7 and 8 hr. The curves for SBA level vs time obtained in these experiments were used as references for determining blood sampling times in experiments with LUM001. Wherever possible, experimental design permitting, in experiments with test compound, each dog served as its own simultaneous control, and the mean 1 hr SBA value served as the reference to which all other mean values were compared.
LUM001 was administered at 0, 0.01, 0.05, 0.2 and 1 mg/kg, p.o. to dogs, n=6, 1 hr after feeding the standard experimental meal. Blood samples for SBA measurement were taken at −30, 0, 30, 60, 65, 70, 80, 90, 120 and 180 minutes from the time of feeding. Each dog served as its own control, and mean SBA levels were compared to the mean SBA level at 60 minutes.

Dog Serum Bile Acids [2] = test: Duration of action of LUM001 on dog serum bile acids, Method 2: one meal, extended interval between dosing and feeding; assay type: in vivo, beagle dogs; conditions: feeding time 2 hr
[3] = Pediatric multiple-dose study of LUM-001: tolerability; assay type: in vivo, human; conditions: 2 weeks daily up to 5 mg q.d., 39 treated subjects aged 10-17
Text: (39 treated subjects aged 10-17).

[4] = Pharmacokinetics of LUM001 in subjects under 18 years (study NB-00-02-014): systemic exposure; assay type: in vivo, human; conditions: for Average serum drug exposure: day eight
Experimental: as §1

[5] = patient 401, drug dose 2.5 mg QD
[6] = dogs, 1 mg/kg orally 1 hour after feeding

CCCCC1(CCCC)CS(=O)(=O)c2ccc(N(C)C)cc2[C@@H](c2ccc(OCc3ccc(C[N+]45CCN(CC4)CC5)cc3)cc2)[C@H]1O [LUM001]
Decrease of average fasting serum bile acid level vs placebo patients (serum bile acids; LUM001 1-5 mg QD): 24%
Decrease of average post-prandial peak serum bile acid level vs placebo patients (serum bile acids; LUM001 1-5 mg QD): 23%
Average fasting serum bile acid level of LUM001 treated patients (serum bile acids; LUM001 1-5 mg QD, placebo patients 8.6 μmol/L): 6.5 µmol/L
Average post-prandial peak serum bile acid level of LUM001 treated patients (serum bile acids; LUM001 1-5 mg QD, placebo patients 11.9 μmol/L): 9.2 µmol/L
Fasting serum bile acid (serum bile acids; patient 304, drug dose 1 mg QD): 5.6 µmol/L
Morning Post-prandial peak (serum bile acids; patient 304, drug dose 1 mg QD): 8.4 µmol/L
Fasting serum bile acid (serum bile acids; patient 308, drug dose 1 mg QD): 6.8 µmol/L
Morning Post-prandial peak (serum bile acids; patient 308, drug dose 1 mg QD): 9.3 µmol/L
Fasting serum bile acid (serum bile acids; patient 309, drug dose 1 mg QD): 6.9 µmol/L
Morning Post-prandial peak (serum bile acids; patient 309, drug dose 1 mg QD): 10.0 µmol/L
Fasting serum bile acid (serum bile acids; [5]): 6.0 µmol/L
Morning Post-prandial peak (serum bile acids; [5]): 6.8 µmol/L
Fasting serum bile acid (serum bile acids; patient 510, drug dose 5 mg QD): 7.4 µmol/L
Morning Post-prandial peak (serum bile acids; patient 510, drug dose 5 mg QD): 11.3 µmol/L
Threshold dose for significant SBA lowering (Dog Serum Bile Acids [1]; dog SBA model, oral): 0.05 mg/kg
Serum Bile Acid, Mean (Dog Serum Bile Acids [1]; 0.01 mg/kg p.o., time 0 min): 1.4 µg/mL
Serum Bile Acid, Mean (Dog Serum Bile Acids [1]; 0.01 mg/kg p.o., time 30 min): 5.8 µg/mL
Serum Bile Acid, Mean (Dog Serum Bile Acids [1]; 0.01 mg/kg p.o., time 60 min): 14.6 µg/mL
Serum Bile Acid, Mean (Dog Serum Bile Acids [1]; 0.01 mg/kg p.o., time 65 min): 13.9 µg/mL
Serum Bile Acid, Mean (Dog Serum Bile Acids [1]; 0.01 mg/kg p.o., time 70 min): 14.1 µg/mL
Serum Bile Acid, Mean (Dog Serum Bile Acids [1]; 0.01 mg/kg p.o., time 80 min): 12.8 µg/mL
Serum Bile Acid, Mean (Dog Serum Bile Acids [1]; 0.01 mg/kg p.o., time 90 min): 11.0 µg/mL
Serum Bile Acid, Mean (Dog Serum Bile Acids [1]; 0.01 mg/kg p.o., time 120 min): 10.6 µg/mL
Serum Bile Acid, Mean (Dog Serum Bile Acids [1]; 0.01 mg/kg p.o., time 180 min): 11.0 µg/mL
Serum Bile Acid, Mean (Dog Serum Bile Acids [1]; 0.01 mg/kg p.o., time −30 min): 1.5 µg/mL
Serum Bile Acid, Mean (Dog Serum Bile Acids [1]; 0.05 mg/kg p.o., time 0 min): 2.1 µg/mL
Serum Bile Acid, Mean (Dog Serum Bile Acids [1]; 0.05 mg/kg p.o., time 30 min): 6.8 µg/mL
Serum Bile Acid, Mean (Dog Serum Bile Acids [1]; 0.05 mg/kg p.o., time 60 min): 10.4 µg/mL
Serum Bile Acid, Mean (Dog Serum Bile Acids [1]; 0.05 mg/kg p.o., time 65 min): 12.2 µg/mL
Serum Bile Acid, Mean (Dog Serum Bile Acids [1]; 0.05 mg/kg p.o., time 70 min): 12.0 µg/mL
Serum Bile Acid, Mean (Dog Serum Bile Acids [1]; 0.05 mg/kg p.o., time 80 min): 10.0 µg/mL
Serum Bile Acid, Mean (Dog Serum Bile Acids [1]; 0.05 mg/kg p.o., time 90 min): 8.8 µg/mL
Serum Bile Acid, Mean (Dog Serum Bile Acids [1]; 0.05 mg/kg p.o., time 120 min): 6.5* μg/ml
Serum Bile Acid, Mean (Dog Serum Bile Acids [1]; 0.05 mg/kg p.o., time 180 min): 6.5* μg/ml
Serum Bile Acid, Mean (Dog Serum Bile Acids [1]; 0.05 mg/kg p.o., time −30 min): 1.4 µg/mL
Serum Bile Acid, Mean (Dog Serum Bile Acids [1]; 0.2 mg/kg p.o., time 0 min): 1.9 µg/mL
Serum Bile Acid, Mean (Dog Serum Bile Acids [1]; 0.2 mg/kg p.o., time 30 min): 9.1 µg/mL
Serum Bile Acid, Mean (Dog Serum Bile Acids [1]; 0.2 mg/kg p.o., time 60 min): 19.1 µg/mL
Serum Bile Acid, Mean (Dog Serum Bile Acids [1]; 0.2 mg/kg p.o., time 65 min): 14.9 µg/mL
Serum Bile Acid, Mean (Dog Serum Bile Acids [1]; 0.2 mg/kg p.o., time 70 min): 16.7 µg/mL
Serum Bile Acid, Mean (Dog Serum Bile Acids [1]; 0.2 mg/kg p.o., time 80 min): 14.3 µg/mL
Serum Bile Acid, Mean (Dog Serum Bile Acids [1]; 0.2 mg/kg p.o., time 90 min): 9.8* μg/ml
Serum Bile Acid, Mean (Dog Serum Bile Acids [1]; 0.2 mg/kg p.o., time 120 min): 4.8* μg/ml
Serum Bile Acid, Mean (Dog Serum Bile Acids [1]; 0.2 mg/kg p.o., time 180 min): 4.0 µg/mL
Serum Bile Acid, Mean (Dog Serum Bile Acids [1]; 0.2 mg/kg p.o., time −30 min): 2.4 µg/mL
Serum Bile Acid, Mean (Dog Serum Bile Acids [1]; 1 mg/kg p.o., time 0 min): 2.6 µg/mL
Serum Bile Acid, Mean (Dog Serum Bile Acids [1]; 1 mg/kg p.o., time 30 min): 7.6 µg/mL
Serum Bile Acid, Mean (Dog Serum Bile Acids [1]; 1 mg/kg p.o., time 60 min): 13.8 µg/mL
Serum Bile Acid, Mean (Dog Serum Bile Acids [1]; 1 mg/kg p.o., time 65 min): 13.5 µg/mL
Serum Bile Acid, Mean (Dog Serum Bile Acids [1]; 1 mg/kg p.o., time 70 min): 15.4 µg/mL
Serum Bile Acid, Mean (Dog Serum Bile Acids [1]; 1 mg/kg p.o., time 80 min): 12.1 µg/mL
Serum Bile Acid, Mean (Dog Serum Bile Acids [1]; 1 mg/kg p.o., time 90 min): 7.4* μg/ml
Serum Bile Acid, Mean (Dog Serum Bile Acids [1]; 1 mg/kg p.o., time 120 min): 3.0* μg/ml
Serum Bile Acid, Mean (Dog Serum Bile Acids [1]; 1 mg/kg p.o., time 180 min): 2.6* μg/ml
Serum Bile Acid, Mean (Dog Serum Bile Acids [1]; 1 mg/kg p.o., time −30 min): 2.1 µg/mL
Time after dosing to significantly lowered serum bile acid levels (Dog Serum Bile Acids [1]; dogs, 0.2 mg/kg orally 1 hour after feeding): ≤ 30 min
Effect of increasing the dose above the ED50 level on onset time to significant SBA lowering (Dog Serum Bile Acids [1]; [6]): did not shorten the onset time
Time after dosing for which maximal SBA suppression was sustained (Dog Serum Bile Acids [1]; [6]): 2 h
Serum Bile Acid, Mean (Dog Serum Bile Acids [2]; dogs n = 6, 0.2 mg/kg p.o., dosing time 0 hr, time 3 hr): 4.1* μg/ml
Serum Bile Acid, Mean (Dog Serum Bile Acids [2]; dogs n = 6, 0.2 mg/kg p.o., dosing time 0 hr, time 4 hr): 6.5* μg/ml
Serum Bile Acid, Mean (Dog Serum Bile Acids [2]; dogs n = 9, 0.05 mg/kg p.o., dosing time 0 hr, time 0 hr): 1.7 µg/mL
Serum Bile Acid, Mean (Dog Serum Bile Acids [2]; dogs n = 9, 0.05 mg/kg p.o., dosing time 0 hr, time 2 hr): 2.0 µg/mL
Serum Bile Acid, Mean (Dog Serum Bile Acids [2]; dogs n = 9, 0.05 mg/kg p.o., dosing time 0 hr, time 3 hr): 9.0* μg/ml
Serum Bile Acid, Mean (Dog Serum Bile Acids [2]; dogs n = 9, 0.05 mg/kg p.o., dosing time 0 hr, time 4 hr): 10.8 µg/mL
Serum Bile Acid, Mean (Dog Serum Bile Acids [2]; dogs n = 9, 0.05 mg/kg p.o., dosing time 0 hr, time 5 hr): 10.6 µg/mL
Serum Bile Acid, Mean (Dog Serum Bile Acids [2]; dogs n = 9, 0.05 mg/kg p.o., dosing time 0.5 hr, time 0.5 hr): 1.8 µg/mL
Serum Bile Acid, Mean (Dog Serum Bile Acids [2]; dogs n = 9, 0.05 mg/kg p.o., dosing time 0.5 hr, time 2 hr): 1.7 µg/mL
Serum Bile Acid, Mean (Dog Serum Bile Acids [2]; dogs n = 9, 0.05 mg/kg p.o., dosing time 0.5 hr, time 2.5 hr): 2.5 µg/mL
Serum Bile Acid, Mean (Dog Serum Bile Acids [2]; dogs n = 9, 0.05 mg/kg p.o., dosing time 0.5 hr, time 3 hr): 9.7 µg/mL
Serum Bile Acid, Mean (Dog Serum Bile Acids [2]; dogs n = 9, 0.05 mg/kg p.o., dosing time 0.5 hr, time 4 hr): 12.4 µg/mL
Serum Bile Acid, Mean (Dog Serum Bile Acids [2]; dogs n = 9, 0.05 mg/kg p.o., dosing time 0.5 hr, time 5 hr): 11.6 µg/mL
Tolerability [3]: well-tolerated
Systemic exposure (absorption) of LUM001 ([4]; patients under the age of 18, once-a-day in the morning for fourteen days, measured on day eight): minimally absorbed
Average serum drug exposure ([4]; subject 0304, LUM001 1.0 mg QD (24.3 μg/kg)): 0.0 ng/mL
Average serum drug exposure ([4]; subject 0309, LUM001 1.0 mg QD (35.0 μg/kg)): 0.0 ng/mL
